From patent publication US7897620B2, “Methods of using anti-inflammatory compounds” (Cambridge Enterprise Limited, priority 2007, dated 2011) come the findings set out here.

Data set [1] can be described thus: Identification of the primary metabolites in pooled 24 h urine (LC-MS-MS full scan). It counts as in vivo. Particulars: rat, single oral dose 3 mg/kg in 1% CMC, qualitative. On the procedure:
Urine was collected from rats exposed to a single oral dose (3 mg/kg in 1% CMC) of each compound over a 24 hour period in metabolic cages. The pooled urine sample was then subjected to full scan mass spectral analysis, using the same LC-MS conditions as described in example 1 above. Further MS-MS analysis of the product ions was then performed, and likely fragmentations/re-arrangements assigned from the publicly available Metabolite ID database.
For the major metabolites, the assigned structures were confirmed by synthesis of authentic samples, using methods well known in the art, which were subject to LC-MS-MS analysis under the same conditions as the urine samples.
Note that metabolite ID studies provide only qualitative estimates of the relative amounts of the different metabolites present, and separately validated assays with appropriate internal standards would be required to quantitate each metabolite species.
The detected metabolites, in rank order of concentration detected are shown in FIG. 2 for the five compounds analysed. It is important to note that the methodology used here is not necessarily exhaustive, and further (particularly minor) metabolites may also be present which were below the detection limits for the methods applied here. As a general rule, it can be assumed that metabolites representing 10% or more of the injected dose will be detected (though not necessarily structurally identified) by the methods used here).

The subject of data set [2] is target receptor (site of specific interaction of BN83250) (Homo sapiens). In words: Competition for specific binding of [3H]-BN83250 to human myelomonocytic cell line. Conditions: competition binding curve, non-linear modelling. The protocol: The general pharmacology of the five compounds was assessed, both against the specific target receptor, and against a wide variety of other receptors, many related in structure to the target receptor. Specific binding to the target receptor was assessed by competition for the binding of [^3H]-BN83250 (BN83250 is (S)-3-(2′,2′-dimethyldodecanoylamino)-caprolactam; Fox et al. J Med Chem. […]; 48(3):867-74; an agent known to bind to the same target receptor as the lactam BSCIs disclosed here). Binding to non-target receptors was assessed by competition for the binding of various specific radioligands for other receptors which are well known in the art.
For specific binding the human myelomonocytic cell line was resuspended in binding buffer (20 mM HEPES, 150 mM NaCl, pH 7.4; 10^6 cells per reaction) at 4° C. in the presence of 10 nM [^3]-BN83250 (from 1 μM stock in 100% ethanol; 30 Ci/mmol) and various competitors (1% DMSO maximum vehicle concentration). Reactions were incubated for 2 hours on ice, then filtered through GF/C filters pre-soaked in 0.5% polyethyeneimine. Unbound material was washed away with 5×5 ml ice cold washing buffer (20 mM HEPES, 150 mM NaCl, pH 7.4) under a slow vacuum.
Competition for the specific [^3H]-BN83250 with compounds (I′), (II) and (V) was then determined at various concentrations from 1 μM to 10 μM. Compounds (III) and (IV) were not examined in these experiments.
Non-linear modelling was then applied to the competition binding curves for the various compounds, in order to compare their properties as agents binding to the target receptor (defined as the site of specific interaction of BN83250).

The subject of data set [3] is C5a induced neutrophil migration. Briefly: ChemoTx transwell migration assay, C5a induced migration of neutrophils (non-chemokine chemoattractant). It counts as cell-based. Conditions: highest concentration tested 1 μM, read-out: ED50 C5a neutrophils. The protocol:
(§1) In principle, this assay consists of two chambers separated by a porous membrane. The chemoattractant is placed in the lower compartment and the cells are placed in the upper compartment. After incubation for a period at 37° C. the cells move towards the chemoattractant, and the number of cells in the lower compartment is proportional to the chemoattractant activity (relative to a series of controls).
(§2) Next, the chemoattractant solution to be placed in the lower compartment is prepared. For example, MCP-1 is diluted in GBSS+BSA to give a final concentration of 25 ng/ml. This is divided into two pots, as for the cell suspension. To one pot, the test compound is added to the same final concentration as was added to the cell suspension, while to the other pot an equal volume of GBSS+BSA plus vehicle as appropriate (e,g. not more than 1% DMSO) is added. Alternatively, other chemokines may be used (SDF-1α at 7.5 ng/ml; RANTES at 50 ng/ml; IL-8 at 10 ng/ml using neutrophils as the target cell population). In each case it is important to determine (in a separate experiment) the concentration of each chemokine which causes maximal stimulation of migration of the chosen target leukocyte population. […]
(§3) The number of cells migrated into the lower chamber under each condition can then be determined by a number of methods, including direct counting, labelling with fluorescent or radioactive markers or through the use of a vital dye. […] 3 μl of stock MTT solution are added to each well, and then the plate is incubated at 37° C. for 1-2 hours during which time dehydrogenase enzymes within the cells convert the soluble MTT to an insoluble blue formazan product that can be quantified spectrophotometrically. […]
(§4) At the end of this incubation, the liquid is carefully removed from the lower chambers, taking care not to disturb the precipitated formazan product. After allowing to air dry briefly, 20 μl of DMSO is added to each lower chamber to solubilise the blue dye, and absorbance at 595 nm is determined using a 96-well plate reader. […]

The test system of data set [4] is IL-8 induced neutrophil migration. Briefly: ChemoTx transwell migration assay, IL-8 induced migration of neutrophils. It counts as cell-based. Particulars: maximal dose of chemoattractant, read-out: ED50 IL-8 neutrophils. The protocol:
as §1, §2, §3, §4

target receptor (site of specific interaction of BN83250) (Homo sapiens), sequence (P30874 whole entry): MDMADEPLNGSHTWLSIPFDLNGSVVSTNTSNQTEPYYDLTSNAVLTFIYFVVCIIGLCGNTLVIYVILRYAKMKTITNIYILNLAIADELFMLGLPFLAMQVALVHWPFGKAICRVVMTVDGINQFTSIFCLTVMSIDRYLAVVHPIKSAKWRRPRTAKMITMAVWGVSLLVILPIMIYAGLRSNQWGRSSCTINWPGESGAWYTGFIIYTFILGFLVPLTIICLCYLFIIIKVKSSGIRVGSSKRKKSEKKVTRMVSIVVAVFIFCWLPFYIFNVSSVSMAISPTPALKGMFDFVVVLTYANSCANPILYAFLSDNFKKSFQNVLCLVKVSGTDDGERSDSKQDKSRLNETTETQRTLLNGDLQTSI

One may read the Hill slope as the slope factor of the fitted curve. For the compound `CC(C)(C)C(=O)N[C@H]1CCCNC1=O` [Compound (I′), 3-(2′,2′-dimethylpropanoylamino)-tetrahydropyridin-2-one], the “major metabolite / route of metabolism detected in urine” value (“major metabolite / route” below) in data set [1] is “no significant metabolites of (I′) were detected in urine”. Also, the Hill slope in data set [2] is listed as −1.0. The EC50 was more than 1000 nM in data set [3] and 0.6 nM in data set [4].
Turning to `CC(C)(C)S(=O)(=O)N[C@H]1CCCCNC1=O` [(IV), 3-(1′,1′-dimethylethylsulfonylamino)-caprolactam], in data set [1], the “major metabolite / route” value was “the major metabolite could not be identified”.
Take `O=C1NCCCC[C@@H]1NC(=O)C12CC3CC(CC(O)(C3)C1)C2` [(V), 3-(3′-hydroxyadamantyl-1-carbonylamino)-caprolactam]: in data set [1], the “major metabolite / route” value is on record as “the glucuronidated compound was the major metabolite”. The same compound had a Hill slope in data set [2] of −0.5. Moreover, the EC50 in data set [3] was more than 1000 nM; in data set [4], 0.5 nM.
The matching figures for `O=C1NCCCC[C@@H]1NC(=O)C12CC3CC(CC(C3)C1)C2` [(II), 3-(adamantane-1-carbonylamino)-caprolactam]: “cytochrome P450-mediated hydroxylation”, −0.5, more than 1000 nM and 0.6 nM.
